Measured values taken from US7429659B2, “Furan compounds as histamine H3 modulators” (Janssen Pharmaceutica N.V., priority 2004, dated 2008).
Structures can show the parent of a compound that is named as a salt.

Biological target: T1, human histamine H3 receptor (Homo sapiens, UniProt Q9Y5N1)
T1 construct: One μg supercoiled H3 receptor cDNA was added to the cells; expressed in transfected cells; membranes prepared from cell pellets
Assay: [3H]-N-Methylhistamine binding to membranes of histamine H3 receptor-expressing SK-N-MC cells
Conditions: 0.8 nM [3H]-N-methylhistamine, 60 min at 25° C., SK-N-MC cell membranes; Ki=(IC50)/(1+([L]/(KD))
Method: Cells were grown to about 70% to 80% confluence and removed from the plate with trypsin and pelleted in a clinical centrifuge. […] One μg supercoiled H3 receptor cDNA was added to the cells and mixed gently. […] Colonies that survived selection were grown and tested. SK-N-MC cells were used because they give efficient coupling for inhibition of adenylate cyclase. The clones that gave the most robust inhibition of adenylate cyclase in response to histamine were used for further study.
Supernatants from an 800 g spin were collected and were recentrifuged at 30,000 g for 30 min. Pellets were re-homogenized in 50 mM Tris/5 mM EDTA (pH 7.4). Membranes were incubated with 0.8 nM [^3H]-N-methylhistamine plus/minus test compounds for 60 min at 25° C. and were harvested by rapid filtration over GF/C glass fiber filters (pretreated with 0.3% polyethylenimine) followed by four washes with buffer. Filters were added to 5 mL of scintillation cocktail, and the signal was then counted on a liquid scintillation counter.

T1 sequence (Q9Y5N1 whole entry): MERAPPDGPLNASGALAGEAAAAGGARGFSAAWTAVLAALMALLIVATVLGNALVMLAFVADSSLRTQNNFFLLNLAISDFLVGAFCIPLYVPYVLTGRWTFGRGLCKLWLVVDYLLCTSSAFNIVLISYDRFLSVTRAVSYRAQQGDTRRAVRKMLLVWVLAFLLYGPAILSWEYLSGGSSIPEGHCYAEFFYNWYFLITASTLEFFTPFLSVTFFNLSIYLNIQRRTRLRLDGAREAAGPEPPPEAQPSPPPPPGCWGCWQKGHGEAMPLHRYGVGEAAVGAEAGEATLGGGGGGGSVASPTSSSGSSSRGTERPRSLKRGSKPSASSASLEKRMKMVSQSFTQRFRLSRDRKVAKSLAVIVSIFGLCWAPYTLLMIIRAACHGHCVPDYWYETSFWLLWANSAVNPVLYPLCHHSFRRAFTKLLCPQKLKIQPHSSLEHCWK

Ki: 0.064 µM
Compound: CC(C)N1CCN(C(=O)c2ccc(CN3CCC(F)CC3)o2)CC1 [Example 19, [5-(4-Fluoro-piperidin-1-ylmethyl)-furan-2-yl]-(4-isopropyl-piperazin-1-yl)-methanone, fumarate salt]
